# Laboratory results published in US20020165197A1, “Modulation of GSK-3beta activity and its different uses” (priority 2001, published 2002).
# How the values were obtained:
# GSK-3β = test: Western blot of GSK-3β (total and phosphorylated) in B16-F10 melanoma cell extracts; format: cell-based
# Description: (§1) Cells (B16-F10 melanoma cells) were maintained in RPMI medium supplemented with 10% […], 200 mM glutamine, 100 U/ml penicillin and 100 μg/ml streptomycin. They were transferred to a freshly prepared medium twice weekly. For all studies we used serum starved cells. FBS was omitted from the cultures for 18 hours and the experiment was carried out on monolayers of cells in RPMI medium supplemented with 1% FBS in a 37° C., 5% CO2 incubator.
# (§2) To detect the level of expression of PKA, GSK-3β (total and phosphorylated), PKB/Akt (total and phosphorylated), β-catenin, c-myc and cyclin D1, protein extract from IB-MECA treated or untreated serum-starved B16-F10 melanoma cells were utilized. […] Further, to mimic the chain of events occurring upon activation of A2R, cells were incubated with 8Br cAMP.
# (§3) At the end of the incubation period, cells were rinsed with ice-cold PBS and lysed in ice-cold lysis buffer (TNN buffer, 50 mM tis buffer pH=7.5, 150 mM NaCl, NP 40). Cell debris was removed by centrifugation at 7500×g for 10 min. Supernatant was utilized for Western Blot analysis. Protein concentrations were determined using the Bio-Rad protein assay dye reagent. […] Bands were recorded using BCIP/NBT color development kit (Promega, Madison, Wis., USA). […]
# cyclin D1 = test: Western blot of tumor tissue from HCT-116 colon carcinoma bearing mice: cyclin D1; format: in vivo, Balb/C nude mice; details: 6 μg/Kg orally every second day, 30 days
# Description: (§4) A similar series of studies was utilized in a colon carcinoma murine animal model to determine whether elements of the Wnt pathway altered by IB-MECA in vitro, occur as well in viro with Cl-B-MECA (another A3RAg). The animal model was generated by subcutaneous injection of 1.2×10^6HCT-116 human colon carcinoma cells to the flank of Balb/C nude mice. The mice were treated orally (by gavage), every second day with 6 μg/Kg Cl-IB-MECA.
# (§5) After 30 days the mice were sacrificed and tissue samples from the colon carcinoma foci were harvested and analyzed for the expression of β-catenin and cyclin D1.
# c-myc = test: Western blot of tumor tissue from HCT-116 colon carcinoma bearing mice: c-myc; format: in vivo, Balb/C nude mice; details: 6 μg/Kg orally every second day, 30 days
# β-catenin = test: Western blot of tumor tissue from HCT-116 colon carcinoma bearing mice: β-catenin; format: in vivo, Balb/C nude mice; details: 6 μg/Kg orally every second day, 30 days
# Description: as §4, §5
# HIV-1 SF126 = test: p24 ELISA, HIV replication in SF infected microglia; format: cell-based
# Description: Purified primary human fetal astrocytes and microgial cells were prepared from 16 to 20 week old human fetal brain tissue by a modified procedure based on the methods of Cole and de Vellis [R. Cole and J. de Vellis. In: Protocols for neural cell cure. S. Fedoroff and A. Richardson (Eds.) Human Press, Totowa, N.J., pp. is 117-130. (1997)], and Yong and Antel [V. W. Yong and J. P. Antel. In: Protocols for neural cell culture. S. Fedoroff and A. Richardson (Eds.) Humana Press, Totowa, N.J., pp. 157-172 (1997)]. Brain tissue was washed in ice-cold Hank's Balanced Salt Solution (HBSS) containing the antibiotics gentamycin and arnphotericin B. Blood vessels and meninges were removed and the tissue was minced into small pieces. After mincing, the tissue was enzymatically dissociated by incubation in 0.05% trypsin and mechanically disrupted by passing several times over a 75 μm nylon mesh filter. The resulting single cell suspension was washed, pelleted and plated at a density of 2-10×10^6 cells per 162 cm^2 flask in DMEM:F12 containing 10% fetal calf […], gentamycin, and L-glutamine. After 7-10 days of growth, microglial cells were isolated by placement on rotary shaker at 200 rpm in a 37° C. incubator overnight. The non-adherent cells were removed and allowed to attach to a new flask for 1 to 3 h. Following attachment, the cells were washed and refed with media containing 10% fetal calf serum, insulin, gentamycin, L-gluntamine, and N1 supplement. Astocyes were subeultured from adherent cells in media containing 15% fetal calf serum, insulin, gentamycin, and L-glutamine and contaminating microglia were removed by repeated rotary shaking. Cultured astrocytic and nicroglial cells were plated at a density of 2.5×10^5 per well into 6 well plates for subseqent infection.
# Brain derived primary HIV-1 isolates SF162 and JR-FL were cultured in human peripheral blood mononuclear cells (PBMC) essentially as described by Gartner and Popovic^12. PBMC were isolated from human buffy coat by ficoll gradient and plated at a density of 2.5×10^6 per ml in RPMI containing 10% fetal calf serum and gentamycin. Cells were stimulated by the addition of 5 μg/ml of phytohemagglutinin (PHA) for 48 h. After stimulation, cells were infected with either SF162 or JR-FL and cultured for 7 to 10 days until high titres of MIV-1 were detected in the supernatant by p24 ELISA assay. When viral production was optimal, the cells were pelleted, the supernatant containing HIV-1 was aliquoted and stored at −70° C. until use. P24 ELISA assay was performed on an aliquot of stock to determine the viral titre.
# Microglial or astrocytic cells (2.5×10^5) were plated per well into 6-well plates. The next day, cells were washed and refed with fresh medium. […]
# HIV-1 JR-FL = test: p24 ELISA, HIV replication in JR-FL infected astroglial cells; format: cell-based; details: Astroglia/JR-FL, 0.01 (μM, every 24 hours); HIV control 22.83
# Description: (§6) Purified primary human fetal astrocytes and microgial cells were prepared from 16 to 20 week old human fetal brain tissue by a modified procedure based on the methods of Cole and de Vellis [R. Cole and J. de Vellis. In: Protocols for neural cell cure. S. Fedoroff and A. Richardson (Eds.) Human Press, Totowa, N.J., pp. is 117-130. (1997)], and Yong and Antel [V. W. Yong and J. P. Antel. In: Protocols for neural cell culture. S. Fedoroff and A. Richardson (Eds.) Humana Press, Totowa, N.J., pp. 157-172 (1997)]. Brain tissue was washed in ice-cold Hank's Balanced Salt Solution (HBSS) containing the antibiotics gentamycin and arnphotericin B. Blood vessels and meninges were removed and the tissue was minced into small pieces. After mincing, the tissue was enzymatically dissociated by incubation in 0.05% trypsin and mechanically disrupted by passing several times over a 75 μm nylon mesh filter. […]
# (§7) Brain derived primary HIV-1 isolates SF162 and JR-FL were cultured in human peripheral blood mononuclear cells (PBMC) essentially as described by Gartner and Popovic^12. […] After stimulation, cells were infected with either SF162 or JR-FL and cultured for 7 to 10 days until high titres of MIV-1 were detected in the supernatant by p24 ELISA assay. […]
# hair growth = test: Hair growth in nude mice inoculated with HCT-116 colon carcinoma cells; format: in vivo, Nude mice (BalbC origin); details: 6 μg/kg body weight orally daily, 30 days
# Description: Nude mice (BalbC origin) were subcutaneously inoculated with HCT16 human colon carcinoma cells, which thus developed a visible tumor.
# Cl-IB-MECA was dissolved in DMSO and kept as a stock solution. in a concentration of 10 mM. Before administration to the mice, the stock solution was diluted with PBS to a concentration so that each mice received a dosage of 6 μg/kg body weight.
# Nude mice (BalbC origin) were subcutaneously inoculated wit HCT-16 human colon carcinoma cells. These mice were divided into two groups:
# Study group which was daily and orally administered with Cl-IB-MECA (6 μg/kg body weight) dissolved in DMSO and diluted with PBS.
# Control group which was daily and orally administered with DMSO only.
# HIV-1 SF162 = test: p24 ELISA, HIV replication in SF162 infected astroglia; format: cell-based; details: Astroglia/SF-162, 0.01 (μM); HIV control 313.38
# Description: as §6, §7
# PKAc = test: Western blot of PKAc in B16-F10 melanoma cell extracts; format: cell-based; details: antagonist 0.01 μM with IB-MECA
# Description: as §1, §2, §3
# B16-F10 melanoma cells = test: [3H]-thymidine incorporation cell proliferation assay; format: cell-based; details: antagonist 0.01 μM added in the presence of IB-MECA
# Description: as §1
# [^3H]-thymidine incorporation assay as used to evaluate cell growth. B136-F10 melanom Cella (1.5×10^4/ml) were incubated with IB-MECA (0.0 μM-10 μM) in 96-well microtiter plates for 24 hours. To test whether IB-MECA exerted its effect on tumor cells through binding to A3AR, an antagonist to A3AR, MRS-1523, was added to the cell cultures in the presence of IB-MECA. Cultures of B16-F10 melanoma cells tat were incubated in the presence of MRS-1523 only, served as controls. For the last 6 h of incubation, each well was pulsed with 1 μCi [3H]-thymidine. Cells were harvested and the [^3H]-thyine uptake was determined in an LKB liquid scintillation counter (LKB, Piscataway, N.J., USA). These experiments were repeated at least 10 times.
structure (smiles),measurement,setting,value
Nc1ncnc2c1nc(Br)n2[C@@H]1O[C@@H]2COP(=O)(O)O[C@H]2[C@H]1O [8Br cAMP],level of GSK-3β,GSK-3β; 8Br cAMP added to culture to mimic A2AR activation,decrease
CNC(=O)C1OC(n2cnc3c(NCc4cccc(I)c4)nc(Cl)nc32)C(O)C1O (centres unmarked) [Cl-IB-MECA],level of cyclin D1 in tumor tissue,cyclin D1,decrease
same,level of c-myc in tumor tissue,c-myc,decrease
same,level of β-catenin in tumor tissue,β-catenin,decrease
same,p 24 Day 10 after infection,"HIV-1 SF126; 0.01, HIV control 209.18",111.05 pg/mL
same,p 24 Day 5 after infection,"HIV-1 SF126; 0.01, HIV control 267.99",127.03 pg/mL
same,p 24 Day 10 after infection,"HIV-1 SF126; 0.1, HIV control 209.18",80.37 pg/mL
same,p 24 Day 5 after infection,"HIV-1 SF126; 0.1, HIV control 267.99",10.81 pg/mL
same,p 24 Day 5,HIV-1 JR-FL,8.45 pg/mL
same,hair growth on the skin,hair growth,hair grew
same,p 24 Day 5,HIV-1 SF162,288.77 pg/mL
CCCOC(=O)c1c(-c2ccccc2)nc(CC)c(C(=O)SCC)c1CCC [MRS-1523],effect on the IB-MECA induced decrease in PKAc,PKAc,reversed
same,effect on the inhibitory effect of IB-MECA on melanoma cell growth,B16-F10 melanoma cells,reversed the inhibitory effect of IB-MECA
same,effect on the IB-MECA induced increase in GSK-3β levels,GSK-3β; antagonist 0.01 μM with IB-MECA,reversed
